Patent US8703796B2, “3H-imidazo [4, 5-B] pyridine-6-carboxamides as anti-inflammatory agents” (Boehringer Ingelheim International GmbH, priority 2008, dated 2014)

target: T1, recombinant human mPGES-1 (Homo sapiens, UniProt O14684); assay: mPGES-1 inhibition, HTRF detection of PGE2; format: biochemical
T1 construct: made in house; host or cells: Rosetta E. coli (microsomal/membrane fraction)
T1 sequence (O14684 1-152): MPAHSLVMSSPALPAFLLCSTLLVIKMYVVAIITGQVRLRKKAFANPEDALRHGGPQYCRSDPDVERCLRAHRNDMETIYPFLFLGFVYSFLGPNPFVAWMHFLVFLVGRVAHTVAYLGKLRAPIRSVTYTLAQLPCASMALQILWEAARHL
Procedure, shortened: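 E. coli microsomal enzyme, 0.1 M KPi pH 7.4 + 2.5 mM GSH; cpd (DMSO) 25 min RT; PGH2 1 min; acidic FeCl2 stop. Dilute 750-fold, HTRF (d2/Eu-cryptate anti-PGE2, overnight 4 °C), 665/620 ratio vs PGE2 standard curve.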

| SMILES | inhibition at 10 µM [%] | inhibition at 1 µM [%] |
| --- | --- | --- |
| CC(C)(C)[C@H]1CC[C@H](NC(=O)c2cnc3[nH]c(Nc4c(Cl)cccc4Cl)nc3c2)CC1 [Example 379, N-((1r,4r)-4-tert.-Butylcyclohexyl)-2-(2,6-dichlorophenylamino)-3H-imidazo[4,5-b]pyridine-6-carboxamide] | 100 |  |
| Cc1ccnc(Cl)c1Nc1nc2cc(C(=O)N[C@H]3CC[C@H](C(F)(F)F)CC3)c(OCC(F)F)nc2n1C [Example 788, 2-(2-Chloro-4-methyl-pyridin-3-ylamino)-5-(2,2-difluoro-ethoxy)-N-(trans-4-trifluoromethyl-cyclohexyl)-3-methyl-3H-imidazo[4,5-b]pyridine-6-carboxamide] | 98 |  |
| Cn1c(Nc2c(Cl)cccc2Cl)nc2cc(C(=O)N[C@H]3CC[C@H](C(F)F)CC3)cnc21 [Example 560] | 93 |  |
| Cn1c(Nc2c(Cl)cc(F)cc2Cl)nc2cc(C(=O)Nc3cc(C(F)(F)F)ccn3)c(OCC(F)(F)F)nc21 [Example 815, 2-(2,6-Dichloro-4-fluoro-phenylamino)-5-(2,2,2-trifluoro-ethoxy)-N-(4-trifluoromethyl-pyridin-2-yl)-3-methyl-3H-imidazo[4,5-b]pyridine-6-carboxamide] | 100 |  |
| CCCC[C@@H](C)NC(=O)c1cnc2[nH]c(Nc3c(Cl)cccc3Cl)nc2c1 [Example 517, (R)-2-(2,6-Dichlorophenylamino)-N-(hex-2-yl)-3H-imidazo[4,5-b]pyridine-6-carboxamide] | 100 |  |
| O=C(N[C@H]1CC[C@H](C(F)(F)F)CC1)c1cc2nc(Nc3c(Cl)cc(F)cc3Cl)[nH]c2nc1OCC(F)(F)F [Example 827, 2-(2,6-Dichloro-4-fluoro-phenylamino)-5-(2,2,2-trifluoro-ethoxy)-N-(trans-4-trifluoromethyl-cyclohexyl)-3H-imidazo[4,5-b]pyridine-6-carboxamide] | 100 |  |
| Cn1c(Nc2c(Cl)cccc2C(F)(F)F)nc2cc(C(=O)N[C@H]3CC[C@H](C(F)(F)F)CC3)c(OCC(F)F)nc21 [Example 777, 2-(2-Chloro-6-trifluoromethyl-phenylamino)-5-(2,2-difluoro-ethoxy)-N-(trans-4-trifluoromethyl-cyclohexyl)-3-methyl-3H-imidazo[4,5-b]pyridine-6-carboxamide] |  | 98 |
| CC1(C)CCC(NC(=O)c2cnc3[nH]c(Nc4c(F)cccc4Cl)nc3c2)CC1 [Example 466, 2-(2-Chloro-6-fluorophenylamino)-N-(4,4-dimethylcyclohexyl)-3H-imidazo[4,5-b]pyridine-6-carboxamide] | 100 |  |
| Cc1ccnc(C)c1Nc1nc2cc(C(=O)N[C@H]3CC[C@H](C(F)(F)F)CC3)c(OCC(F)F)nc2[nH]1 [Example 794, 2-(2,4-Dimethyl-pyridin-3-ylamino)-5-(2,2-difluoro-ethoxy)-N-(trans-4-trifluoromethyl-cyclohexyl)-3H-imidazo[4,5-b]pyridine-6-carboxamide] | 100 |  |
| O=C(N[C@H]1CC[C@H](C(F)F)CC1)c1cnc2[nH]c(Nc3c(Cl)cccc3Cl)nc2c1 [Example 535, 2-(2,6-Dichlorophenylamino)-N-((1r,4r)-4-(difluoromethyl)cyclohexyl)-3H-imidazo[4,5-b]pyridine-6-carboxamide] | 100 |  |
| CCOc1nc2[nH]c(Nc3c(Cl)cncc3Cl)nc2cc1C(=O)NCC(F)(F)C(F)(F)C(F)(F)C(F)(F)F [Example 844, 2-(3,5-Dichloro-pyridin-4-ylamino)-5-ethoxy-N-(2,2,3,3,4,4,5,5,5-nonafluoro-pentyl)-3H-imidazo[4,5-b]pyridine-6-carboxamide] | 100 |  |

Second part, the molecule after the results:

| inhibition at 10 µM [%] | inhibition at 1 µM [%] | SMILES |
| --- | --- | --- |
| 99 |  | O=C(N[C@H]1CC[C@H](C(F)(F)F)CC1)c1cc2nc(Nc3c(Cl)cncc3Cl)[nH]c2nc1OCC(F)F [Example 862, 2-(3,5-Dichloro-pyridin-4-ylamino)-5-(2,2-difluoro-ethoxy)-N-(trans-4-trifluoromethyl-cyclohexyl)-3H-imidazo[4,5-b]pyridine-6-carboxamide] |
| 98 |  | O=C(NCc1ccccc1C(F)(F)F)c1cc2nc(Nc3c(Cl)cc(F)cc3Cl)[nH]c2nc1OCC(F)(F)F [Example 828, 2-(2,6-Dichloro-4-fluoro-phenylamino)-5-(2,2,2-trifluoro-ethoxy)-N-(2-trifluoromethyl-benzyl)-3H-imidazo[4,5-b]pyridine-6-carboxamide] |
| 95 |  | Cn1c(Nc2c(Cl)cncc2Cl)nc2cc(C(=O)Nc3cc(C(F)(F)F)ccn3)c(OCC(F)(F)F)nc21 [Example 852, 2-(3,5-Dichloro-pyridin-4-ylamino)-5-(2,2,2-trifluoro-ethoxy)-N-(4-trifluoromethyl-pyridin-2-yl)-3-methyl-3H-imidazo[4,5-b]pyridine-6-carboxamide] |
| 96 |  | COCCOc1nc2[nH]c(Nc3c(Cl)cncc3Cl)nc2cc1C(=O)Nc1ccc(Br)cc1 [Example 801, 2-(3,5-Dichloro-pyridin-4-ylamino)-5-(2-methoxy-ethoxy)-N-(4-bromo-phenyl)-3H-imidazo[4,5-b]pyridine-6-carboxamide] |
| 98 |  | COCCOc1nc2[nH]c(Nc3c(Cl)cncc3Cl)nc2cc1C(=O)NCc1ccccc1C(F)(F)F [Example 800, 2-(3,5-Dichloro-pyridin-4-ylamino)-5-(2-methoxy-ethoxy)-N-((2-trifluoromethyl-phenyl)-methyl)-3H-imidazo[4,5-b]pyridine-6-carboxamide] |
| 98 |  | O=C(Nc1ccc(Br)cc1)c1cc2nc(Nc3c(Cl)cncc3Cl)[nH]c2nc1OCC(F)F [Example 804, 2-(3,5-Dichloro-pyridin-4-ylamino)-5-(2,2-difluoro-ethoxy)-N-(4-bromo-phenyl)-3H-imidazo[4,5-b]pyridine-6-carboxamide] |
| 89 |  | O=C(N[C@H]1CC[C@H](C(F)(F)F)CC1)c1cc2nc(Nc3c(Cl)cncc3Cl)[nH]c2nc1OCC(F)(F)F [Example 859, 2-(3,5-Dichloro-pyridin-4-ylamino)-5-(2,2,2-trifluoro-ethoxy)-N-(trans-4-trifluoromethyl-cyclohexyl)-3H-imidazo[4,5-b]pyridine-6-carboxamide] |
| 97 |  | Cn1c(Nc2c(Cl)cccc2Cl)nc2cc(C(=O)Nc3ccc(Br)cc3)cnc21 [Example 463, N-(4-Bromophenyl)-2-(2,6-dichlorophenylamino)-3-methyl-3H-imidazo[4,5-b]pyridine-6-carboxamide] |
| 97 |  | O=C(NCc1ccccc1C(F)(F)F)c1cc2nc(Nc3c(Cl)cncc3Cl)[nH]c2nc1OC1CCOC1 (stereo not shown) [Example 790, 2-(3,5-Dichloro-pyridin-4-ylamino)-5-(tetrahydrofuran-3-yl-oxy)-N-((2-trifluoromethyl-phenyl)-methyl)-3H-imidazo[4,5-b]pyridine-6-carboxamide] |
| 100 |  | COCCOc1nc2[nH]c(Nc3c(Cl)cncc3Cl)nc2cc1C(=O)Nc1cc(C(F)(F)F)ccn1 [Example 808, 2-(3,5-Dichloro-pyridin-4-ylamino)-5-(2-methoxy-ethoxy)-N-(4-trifluoromethyl-pyridin-2-yl)-3H-imidazo[4,5-b]pyridine-6-carboxamide] |
| 99 |  | Cn1c(Nc2c(Cl)cncc2Cl)nc2cc(C(=O)NCc3ncccc3C(F)(F)F)c(OCC(F)F)nc21 [Example 841, 2-(3,5-Dichloro-pyridin-4-ylamino)-5-(2,2-difluoro-ethoxy)-N-((3-trifluoromethyl-pyridin-2-yl)-methyl)-3-methyl-3H-imidazo[4,5-b]pyridine-6-carboxamide] |
